Earlier results on one substance are cited in publication PMC3289745 (Peptides, 2011).

In this data set the test system is conscious male rats. Conditions: central injection of neuronostatin; 30 minutes post-injection.

Turning to neuronostatin, the “increase in plasma AVP levels relative to saline-injected controls” value was 2–3 times.
